Legend:
H9c2 cells = experiment: Reduction of intracellular ATP (Mitochondrial ToxGlo) in differentiated H9c2 cells; format: cell-based; conditions: Rattus norvegicus; H9c2 cells, 6 h exposure; read-out: decrease in intracellular ATP levels IC50
Protocol: H9c2 cell line was purchased from American Tissue Type Collection (ATCC) (Manassas, Va.). The cells were cultured in low-glucose DMEM growth media (Cat No: 31600, Thermo Fisher Scientific, Waltham, Mass.) supplemented with 1.5 g/L sodium bicarbonate, 25 mM HEPES, 10% fetal bovine serum (FBS) (GE Healthcare, Singapore), 100 units/mL penicillin, 100 μg/mL streptomycin and 250 ng/mL amphotericin B in 75-cm^2 tissue-culture flasks at 37° C. in a humidified atmosphere of 5% CO2. Cells were fed every 2-3 days and sub-cultured once 70-80% confluency was achieved to prevent the loss of differentiation potential. For differentiation, H9c2 cells were seeded at a density of 100,000 cells/well in 12-well plates. The cells were maintained for 1 day in low-glucose high-serum growth media to allow for cell attachment. Subsequently, cells were differentiated using 1 μM ATRA.
H9c2 cells were seeded in a white chimney plate and differentiated. The media was changed to DMEM with 10 mM galactose, 2 mM glutamine (6 mM final), 5 mM HEPES, 1 mM sodium pyruvate, 100 U/mL penicillin, 100 μg/mL streptomycin, 0.25 μg/mL amphotericin B, 1% FBS, 1× insulin-transferrin-selenium and 1 μM ATRA for 48 h to overcome the Crabtree effect. […] The cytotoxicity and intracellular ATP content were measured concurrently using Mitochondrial ToxGlo™ kit (Promega, Madison, Wis.) using manufacturer's protocol. Mitochondrial ToxGlo™ assay measures the cell viability using fluorogenic peptide bis-alanine-alanine-phenylalanine-R110 (bis-AAF-R110). Bis-AAF-R110 is a selective peptide that measures protease activity in dead cells since it is impermeable to live cells. Here, the fluorescence derived from metabolized bis-AAF-R110 was measured at different concentrations of the test compounds and compared to control. As the concentration of cytotoxic compound increases, the number of dead cells increases, leading to a higher fluorescence signal. ATP is measured by adding the ATP Detection Reagent, resulting in cell lysis and generation of a luminescent signal proportional to the amount of ATP present. […]

[1] = Parallel artificial membrane permeability assay (PAMPA); format: in vitro ADME; conditions: read-out: Effective permeability
Protocol: The aqueous solubility of each compound was measured in universal buffer (pH 7.4) using MultiscreenHTS PCF Filter Plates. The effective permeability of each compound was measured using the parallel artificial membrane permeability assay (PAMPA).

CYP2J2 [2] = target: T1, CYP2J2 (Homo sapiens, UniProt P51589); experiment: In-vitro metabolic half-life with recombinant CYP2J2; format: in vitro ADME; conditions: recombinant CYP2J2, NADPH, 1 μM drug, read-out: Metabolic half-life (T1/2)
T1 sequence (P51589 1-502): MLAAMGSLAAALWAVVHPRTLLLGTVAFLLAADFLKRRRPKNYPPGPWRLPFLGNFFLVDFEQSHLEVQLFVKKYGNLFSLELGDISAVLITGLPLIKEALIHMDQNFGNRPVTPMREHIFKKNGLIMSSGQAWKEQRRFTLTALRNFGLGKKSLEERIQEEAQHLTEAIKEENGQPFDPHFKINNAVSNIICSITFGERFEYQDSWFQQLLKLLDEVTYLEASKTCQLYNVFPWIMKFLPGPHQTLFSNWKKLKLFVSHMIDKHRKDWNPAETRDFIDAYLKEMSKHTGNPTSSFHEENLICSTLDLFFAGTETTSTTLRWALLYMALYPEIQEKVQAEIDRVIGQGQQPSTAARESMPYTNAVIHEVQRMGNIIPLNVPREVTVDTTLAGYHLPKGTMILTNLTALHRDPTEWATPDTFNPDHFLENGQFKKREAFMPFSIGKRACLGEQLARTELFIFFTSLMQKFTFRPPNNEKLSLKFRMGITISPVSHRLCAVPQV

CYP2J2 [3] = target: T1, CYP2J2; experiment: Time- and concentration-dependent inactivation (MBI) of CYP2J2, rivaroxaban as probe substrate; format: biochemical; design: purchased BD Gentest (Woburn, Mass.)
Protocol: Incubations were conducted in triplicates in 96-well plates. Primary incubation mixtures comprising various concentrations of inhibitor (0-20 μM) were pre-incubated at 37° C. for 3 min with CYP450 enzymes (20 pmol/m L) and NADPH B in potassium phosphate buffer (100 mM, pH 7.4). To initiate the enzymatic reaction, 5 μL NADPH A was added to the primary incubation. The final primary incubation mixture volume was 100 μL and contained <1% v/v organic solvent. At different pre-incubation time points (3, 8, 15, 22, 30, and 45 min) after the addition of NADPH A, 5 μL aliquots of the primary incubation were transferred to 95 μL of the secondary incubation containing 50 μM rivaroxaban, the NADPH A and B, and potassium phosphate buffer (100 mM, pH 7.4) to yield a 20-fold dilution. The secondary incubation mixtures were incubated at 37° C. for 30 min with CYP2J2, before 80 μL aliquots were removed and quenched with an equal volume of ice-cold ACN containing 4 μM dexamethasone as IS. The samples were then centrifuged at 3220 g at 4° C. for 30 min before transferring the supernatant to a 96-well plate for liquid chromatography-tandem mass spectrometry (LC-MS/MS) analysis. The main rivaroxaban metabolite, morpholinone hydroxylated metabolite, was quantified using LC-MS/MS analysis.
The mean of triplicate peak area ratios for each concentration and pre-incubation time was normalized to that of 0 μM with the same pre-incubation time. The amount of rivaroxaban metabolite formed during the secondary incubation, a measure of the probe substrate activity remaining, was computed and the natural logarithm of this measure was plotted against inactivation pre-incubation time for each inactivator concentration. […]
In equation 1, kinact=maximum inactivation rate constant at infinite inactivator concentration (in min^−1); KI=concentration of inactivator at the half-maximal rate constant of inactivation (in μM); [I]=in vitro inactivator concentration (in μM). MBI potency (kinact/KI ratio, μM-1·min-1) against human recombinant CYP2J2 is determined for each compound. […]

Row | SMILES | IC50 (H9c2 cells) | Papp [1] | half-life at 1 μM (CYP2J2 [2]) | inactivation (MBI) of CYP2J2, in words (CYP2J2 [3])
1 | CCCCc1oc2ccc(NS(C)(=O)=O)cc2c1C(=O)c1ccc(OCCCN(CCCC)CCCC)cc1.Cl [Dronedarone] | 3.1 µM | 3.46 ± 0.5 ×10⁻⁶ cm/s | 4.95 min | demonstrated inactivation of CYP2J2
2 | Cl.[2H]c1c(NS(C)(=O)=O)c([2H])c2c(C(=O)c3ccc(OCCCN(CCCC)CCCC)cc3)c(CCCC)oc2c1[2H] [Poyendarone, Methanesulfonamide, N-(2-butyl-3-(4-(3-(dibutylamino)propoxy)benzoyl)-1-benzo(4,6,7-d3)-furan-5-yl)hydrochloride] | 41.5 µM | 4.08 ± 0.5 ×10⁻⁶ cm/s | 5.32 min | does not cause MBI of CYP2J2
